Literature values in patent US20080260864A1, “Topical Compositions for the Treatment of Depilation-Induced Irritation or Prevention Thereof” (MEDIDERMIS LTD., priority 2005, published 2008).

Tested on: skin / tissue
[1] = Hawley's Condensed Chemical Dictionary

SMILES | irritancy to tissue [1] | toxicity by ingestion [1] | skin irritation (The Merck Index) | effect of repeated applications (UpToDate drug information)
[Al+3].[Cl-].[Cl-].[Cl-] [Anhydrous aluminium chloride, Aluminium chloride anhydrous] | powerful irritant | moderately toxic |  | 
S1SSSSSSS1 [Sulfur] |  |  | may cause skin irritation | may cause contact dermatitis
